Counter-ions that a name gives are not always drawn.
Key:
[1] = test system: neuroleptically treated rats; test: ovulation after subcutaneous LH-RH in neuroleptically treated rats; type: in vivo, rat
Method: I. -- Formulations containing the polypeptide, gonadorelin also known as luteinizing hormone-releasing hormone (LH-RH) were evaluated for potency.
Prepared by hydrating each gum separately at 80° C. for 30 minutes and treated with a cell disrupter for 2 minutes. The gum solutions were mixed in the presence of hydrochloric acid by adjusting the pH to 3. Chlorobutanol was then dissolved in the mixed gum solution and filtered. LH-RH was then dissolved in the gum solution over a dose range of 0 to 500 nanograms.
The test solutions were administered subcutaneously to neuroleptically treated rats.

[2] = intranasal evaluation of LH-RH gum formulations; type: in vivo; details: 2% LH-RH, […] locust bean gum, […] xanthan gum, 0.5-1% phenylethyl alcohol
Method: II. -- Formulations containing 2% LH-RH, 0.25% locust bean gum, 0.25% xanthan gum, and 0.5-1% phenylethyl alcohol were also prepared and evaluated intranasally.

Rabbits' eyes = test: average miotic response intensity (pilocarpine hydrochloride formulations); type: in vivo, rabbit
Method: rabbit's eyes were treated with 2 drops of the test solution, and pupillary diameters were measued with a cathetometer. The miotic response intensity was computed by taking the difference in pupillary diameters at zero time and time "T" (i.e., hours after instillation) and dividing it by the pupillary diameter at zero time. The table below illustrates the average miotic response for all eyes as a function of hours after instillation.
Formulations containing pilocarpine hydrochloride were prepared as in Example 2 and are illustrated as follows: […]

CC(C)C[C@H](NC(=O)CNC(=O)[C@H](Cc1ccc(O)cc1)NC(=O)[C@H](CO)NC(=O)[C@H](Cc1c[nH]c2ccccc12)NC(=O)[C@H](Cc1cnc[nH]1)NC(=O)[C@@H]1CCC(=O)N1)C(=O)N[C@@H](CCCNC(=N)N)C(=O)N1CCC[C@H]1C(=O)NCC(N)=O [LH-RH]
Number of Ova Found ([1]; 31 NG s.c., Control (No Gums)): 0
Number of Rats Ovulating ([1]; 31 NG s.c., Control (No Gums)): 0/10
Number of Ova Found ([1]; 31 NG s.c., with 0.5% Gums): 0
Number of Rats Ovulating ([1]; 31 NG s.c., with 0.5% Gums): 0/10
Number of Ova Found ([1]; 62 NG s.c., Control (No Gums)): 7
Number of Rats Ovulating ([1]; 62 NG s.c., Control (No Gums)): 2/10
Number of Ova Found ([1]; 62 NG s.c., with 0.5% Gums): 8.7 ± 1.4
Number of Rats Ovulating ([1]; 62 NG s.c., with 0.5% Gums): 3/10
Number of Ova Found ([1]; 125 NG s.c., Control (No Gums)): 8 ± 1.2
Number of Rats Ovulating ([1]; 125 NG s.c., Control (No Gums)): 5/10
Number of Ova Found ([1]; 125 NG s.c., with 0.5% Gums): 10.6 ± 0.6
Number of Rats Ovulating ([1]; 125 NG s.c., with 0.5% Gums): 7/10
Number of Ova Found ([1]; 250 NG s.c., Control (No Gums)): 10.1 ± 0.5
Number of Rats Ovulating ([1]; 250 NG s.c., Control (No Gums)): 8/10
Number of Ova Found ([1]; 250 NG s.c., with 0.5% Gums): 11.2 ± 0.7
Number of Rats Ovulating ([1]; 250 NG s.c., with 0.5% Gums): 9/10
Number of Ova Found ([1]; 500 NG s.c., Control (No Gums)): 10.5 ± 0.6
Number of Rats Ovulating ([1]; 500 NG s.c., Control (No Gums)): 10/10
Number of Ova Found ([1]; 500 NG s.c., with 0.5% Gums): 11.5 ± 0.5
Number of Rats Ovulating ([1]; 500 NG s.c., with 0.5% Gums): 10/10
LH release and induction of ovulation ([1]; s.c., fluphenazine dihydrochloride pre-treated proestrous rats): released LH and subsequently induced ovulation
LH-RH release after intranasal administration [2]: stimulates LH-RH release at a level greater than formulations without the mixed gums

CC[C@@H]1C(=O)OC[C@@H]1Cc1cncn1C [pilocarpine hydrochloride]
potentiation of miotic response by gums (Rabbits' eyes; combined locust bean and xanthan gums): potentiate the miotic response

CC[C@@H]1C(=O)OC[C@@H]1Cc1cncn1C [pilocarpine]
possible reduction of dose with gums (Rabbits' eyes; combined use of locust bean and xanthan gums): up to one fifth

— patent US4136173A (priority 1977, dated 1979)
